# US12227500B2, “Substituted pyrrolo[2,3-b]pyridines for suppressing toxic endoplasmic reticulum stress” (THE TRUSTEES OF COLUMBIA UNIVERSITY IN THE CITY OF NEW YORK, priority 2018, dated 2025)
# Experiments:
# Assay in all cases: Radiolabeled ATP kinase assay, panel of 371 kinases (Table S6)
# Format in all cases: biochemical
# [1] = molecular target: T1, panel of 371 human kinases (Homo sapiens, UniProt P08069); conditions: IGF1R; 0.1 μM; 10 μM ATP; read-out: % Enzyme Activity (relative to DMSO controls)
# T1 construct: purchased Reaction Biology Corp
# Description: (§1) ; FIG. 38C). […]. Further targeted analyses, such as genetic knock-down or knock-out, may be warranted to parse the role of these additional kinases in our model of neurodegeneration.
# [2] = molecular target: T2, panel of 371 human kinases (Homo sapiens, UniProt P08581); conditions: c-MET; 0.1 μM; 10 μM ATP; read-out: % Enzyme Activity (relative to DMSO controls)
# T2 construct: purchased Reaction Biology Corp
# Description: as §1
# [3] = molecular target: T3, panel of 371 human kinases (Homo sapiens, UniProt P08631); conditions: HCK; 0.1 μM; 10 μM ATP; read-out: % Enzyme Activity (relative to DMSO controls)
# T3 construct: purchased Reaction Biology Corp
# Description: as §1
# [4] = molecular target: T4, panel of 371 human kinases (Homo sapiens, UniProt P10721); conditions: c-Kit; 0.1 μM; 10 μM ATP; read-out: % Enzyme Activity (relative to DMSO controls)
# T4 construct: purchased Reaction Biology Corp
# Description: as §1
# [5] = molecular target: T5, panel of 371 human kinases (Homo sapiens, UniProt P22607); conditions: FGFR3; 0.1 μM; 10 μM ATP; read-out: % Enzyme Activity (relative to DMSO controls)
# T5 construct: purchased Reaction Biology Corp
# Description: as §1
# [6] = molecular target: T6, panel of 371 human kinases (Homo sapiens, UniProt P54753); conditions: EPHB3; 0.1 μM; 10 μM ATP; read-out: % Enzyme Activity (relative to DMSO controls)
# T6 construct: purchased Reaction Biology Corp
# Description: as §1
# [7] = molecular target: T7, panel of 371 human kinases (Homo sapiens, UniProt P54762); conditions: EPHB1; 0.1 μM; 10 μM ATP; read-out: % Enzyme Activity (relative to DMSO controls)
# T7 construct: purchased Reaction Biology Corp
# Description: as §1
# [8] = molecular target: T8, panel of 371 human kinases (Homo sapiens, UniProt Q12852); conditions: DLK/MAP3K12; 0.1 μM; 10 μM ATP; read-out: % Enzyme Activity (relative to DMSO controls)
# T8 construct: purchased Reaction Biology Corp
# Description: as §1
# [9] = molecular target: T9, panel of 371 human kinases (Homo sapiens, UniProt Q13164); conditions: ERK5/MAPK7; 0.1 μM; 10 μM ATP; read-out: % Enzyme Activity (relative to DMSO controls)
# T9 construct: purchased Reaction Biology Corp
# Description: as §1
# [10] = molecular target: T10, panel of 371 human kinases (Homo sapiens, UniProt Q15139); conditions: PKCmu/PRKD1; 0.1 μM; 10 μM ATP; read-out: % Enzyme Activity (relative to DMSO controls)
# T10 construct: purchased Reaction Biology Corp
# Description: as §1
# [11] = molecular target: T11, panel of 371 human kinases (Homo sapiens, UniProt Q15835); conditions: GRK1; 0.1 μM; 10 μM ATP; read-out: % Enzyme Activity (relative to DMSO controls)
# T11 construct: purchased Reaction Biology Corp
# Description: as §1
# [12] = molecular target: T12, panel of 371 human kinases (Homo sapiens, UniProt Q16512); conditions: PKN1/PRK1; 0.1 μM; 10 μM ATP; read-out: % Enzyme Activity (relative to DMSO controls)
# T12 construct: purchased Reaction Biology Corp
# Description: as §1
# [13] = molecular target: T13, panel of 371 human kinases (Homo sapiens, UniProt Q16539); conditions: P38a/MAPK14; 0.1 μM; 10 μM ATP; read-out: % Enzyme Activity (relative to DMSO controls)
# T13 construct: purchased Reaction Biology Corp
# Description: as §1
# [14] = molecular target: T14, panel of 371 human kinases (Homo sapiens, UniProt Q5S007); conditions: LRRK2; 0.1 μM; 10 μM ATP; read-out: % Enzyme Activity (relative to DMSO controls)
# T14 construct: purchased Reaction Biology Corp
# Description: as §1
# [15] = molecular target: T15, panel of 371 human kinases (Homo sapiens, UniProt Q5VT25); conditions: MRCKa/CDC42BPA; 0.1 μM; 10 μM ATP; read-out: % Enzyme Activity (relative to DMSO controls)
# T15 construct: purchased Reaction Biology Corp
# Description: as §1
# [16] = molecular target: T16, panel of 371 human kinases (Homo sapiens, UniProt Q96BR1); conditions: SGK3/SGKL; 0.1 μM; 10 μM ATP; read-out: % Enzyme Activity (relative to DMSO controls)
# T16 construct: purchased Reaction Biology Corp
# Description: as §1
# [17] = molecular target: T17, panel of 371 human kinases (Homo sapiens, UniProt Q96S53); conditions: TESK2; 0.1 μM; 10 μM ATP; read-out: % Enzyme Activity (relative to DMSO controls)
# T17 construct: purchased Reaction Biology Corp
# Description: as §1
# [18] = molecular target: T18, panel of 371 human kinases (Homo sapiens, UniProt Q9BWU1); conditions: CDK19/cyclin C; 0.1 μM; 10 μM ATP; read-out: % Enzyme Activity (relative to DMSO controls)
# T18 construct: purchased Reaction Biology Corp
# Description: as §1
# [19] = molecular target: T19, panel of 371 human kinases (Homo sapiens, UniProt Q9BXA6); conditions: SSTK/TSSK6; 0.1 μM; 10 μM ATP; read-out: % Enzyme Activity (relative to DMSO controls)
# T19 construct: purchased Reaction Biology Corp
# Description: as §1
# [20] = molecular target: T20, panel of 371 human kinases (Homo sapiens, UniProt Q9BYT3); conditions: STK33; 0.1 μM; 10 μM ATP; read-out: % Enzyme Activity (relative to DMSO controls)
# T20 construct: purchased Reaction Biology Corp
# Description: as §1
# [21] = molecular target: T21, panel of 371 human kinases (Homo sapiens, UniProt Q9BZL6); conditions: PKD2/PRKD2; 0.1 μM; 10 μM ATP; read-out: % Enzyme Activity (relative to DMSO controls)
# T21 construct: purchased Reaction Biology Corp
# Description: as §1
# [22] = molecular target: T22, panel of 371 human kinases (Homo sapiens, UniProt Q9H3Y6); conditions: SRMS; 0.1 μM; 10 μM ATP; read-out: % Enzyme Activity (relative to DMSO controls)
# T22 construct: purchased Reaction Biology Corp
# Description: as §1
# [23] = molecular target: T23, panel of 371 human kinases (Homo sapiens, UniProt Q9UQB9); conditions: Aurora C; 0.1 μM; 10 μM ATP; read-out: % Enzyme Activity (relative to DMSO controls)
# T23 construct: purchased Reaction Biology Corp
# Description: as §1
# [24] = molecular target: T24, panel of 371 human kinases (Homo sapiens, UniProt Q9Y4K4); conditions: for remaining activity at 0.1 µM: KHS/MAP4K5, 10 μM ATP, read-out: % Enzyme Activity (relative to DMSO controls)
# T24 construct: purchased Reaction Biology Corp
# Description: as §1
# T24 sequence (Q9Y4K4 whole entry): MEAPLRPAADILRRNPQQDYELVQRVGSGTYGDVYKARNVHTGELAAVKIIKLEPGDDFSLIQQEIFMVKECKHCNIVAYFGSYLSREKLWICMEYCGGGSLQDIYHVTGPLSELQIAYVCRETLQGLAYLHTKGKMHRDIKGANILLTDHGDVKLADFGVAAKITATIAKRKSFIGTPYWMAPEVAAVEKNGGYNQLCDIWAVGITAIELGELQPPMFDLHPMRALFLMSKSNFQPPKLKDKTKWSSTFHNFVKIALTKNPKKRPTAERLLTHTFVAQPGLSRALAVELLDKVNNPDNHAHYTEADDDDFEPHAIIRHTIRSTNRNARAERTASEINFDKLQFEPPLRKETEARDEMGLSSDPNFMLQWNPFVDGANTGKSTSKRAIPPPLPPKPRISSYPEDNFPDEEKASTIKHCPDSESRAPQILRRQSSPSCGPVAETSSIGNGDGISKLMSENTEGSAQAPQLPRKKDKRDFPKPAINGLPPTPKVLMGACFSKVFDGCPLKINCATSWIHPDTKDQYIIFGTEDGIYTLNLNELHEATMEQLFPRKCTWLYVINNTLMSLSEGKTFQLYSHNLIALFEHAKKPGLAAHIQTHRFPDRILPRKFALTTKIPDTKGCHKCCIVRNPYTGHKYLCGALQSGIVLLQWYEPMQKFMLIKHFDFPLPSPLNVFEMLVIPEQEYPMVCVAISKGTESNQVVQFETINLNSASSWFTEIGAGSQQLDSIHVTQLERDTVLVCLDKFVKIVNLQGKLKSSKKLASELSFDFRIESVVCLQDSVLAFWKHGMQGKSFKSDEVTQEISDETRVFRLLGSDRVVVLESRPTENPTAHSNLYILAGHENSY
# T21 sequence (Q9BZL6 whole entry): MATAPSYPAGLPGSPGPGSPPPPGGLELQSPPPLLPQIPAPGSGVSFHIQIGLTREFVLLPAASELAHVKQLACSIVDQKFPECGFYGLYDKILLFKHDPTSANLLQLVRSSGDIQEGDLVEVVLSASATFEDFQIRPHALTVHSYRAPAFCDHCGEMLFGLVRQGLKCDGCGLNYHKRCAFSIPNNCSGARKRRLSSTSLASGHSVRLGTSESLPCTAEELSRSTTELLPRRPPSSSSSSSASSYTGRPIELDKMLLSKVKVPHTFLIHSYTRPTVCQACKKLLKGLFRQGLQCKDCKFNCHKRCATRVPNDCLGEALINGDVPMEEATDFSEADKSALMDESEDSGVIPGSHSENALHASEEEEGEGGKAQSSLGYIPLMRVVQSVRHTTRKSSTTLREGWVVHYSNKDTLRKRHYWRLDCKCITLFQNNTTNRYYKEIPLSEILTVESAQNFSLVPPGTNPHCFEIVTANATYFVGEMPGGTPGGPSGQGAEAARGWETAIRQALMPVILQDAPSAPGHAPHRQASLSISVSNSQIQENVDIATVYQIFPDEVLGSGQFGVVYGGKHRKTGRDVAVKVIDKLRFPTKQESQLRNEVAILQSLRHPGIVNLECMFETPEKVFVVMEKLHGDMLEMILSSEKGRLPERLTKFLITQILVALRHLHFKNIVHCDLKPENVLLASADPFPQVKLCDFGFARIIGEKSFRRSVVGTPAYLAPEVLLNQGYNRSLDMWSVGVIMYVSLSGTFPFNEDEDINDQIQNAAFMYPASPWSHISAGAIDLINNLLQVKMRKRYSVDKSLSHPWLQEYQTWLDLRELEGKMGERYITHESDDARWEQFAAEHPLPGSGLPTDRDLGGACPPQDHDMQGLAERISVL
# T23 sequence (Q9UQB9 whole entry): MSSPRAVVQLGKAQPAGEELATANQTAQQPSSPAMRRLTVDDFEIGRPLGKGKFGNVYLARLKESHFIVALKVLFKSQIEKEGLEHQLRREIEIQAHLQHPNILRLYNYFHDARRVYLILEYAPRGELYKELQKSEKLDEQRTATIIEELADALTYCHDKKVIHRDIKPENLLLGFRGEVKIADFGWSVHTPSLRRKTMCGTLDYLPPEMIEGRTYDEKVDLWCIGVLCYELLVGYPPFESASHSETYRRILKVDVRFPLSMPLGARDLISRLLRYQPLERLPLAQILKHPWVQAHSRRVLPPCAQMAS
# T18 sequence (Q9BWU1 whole entry): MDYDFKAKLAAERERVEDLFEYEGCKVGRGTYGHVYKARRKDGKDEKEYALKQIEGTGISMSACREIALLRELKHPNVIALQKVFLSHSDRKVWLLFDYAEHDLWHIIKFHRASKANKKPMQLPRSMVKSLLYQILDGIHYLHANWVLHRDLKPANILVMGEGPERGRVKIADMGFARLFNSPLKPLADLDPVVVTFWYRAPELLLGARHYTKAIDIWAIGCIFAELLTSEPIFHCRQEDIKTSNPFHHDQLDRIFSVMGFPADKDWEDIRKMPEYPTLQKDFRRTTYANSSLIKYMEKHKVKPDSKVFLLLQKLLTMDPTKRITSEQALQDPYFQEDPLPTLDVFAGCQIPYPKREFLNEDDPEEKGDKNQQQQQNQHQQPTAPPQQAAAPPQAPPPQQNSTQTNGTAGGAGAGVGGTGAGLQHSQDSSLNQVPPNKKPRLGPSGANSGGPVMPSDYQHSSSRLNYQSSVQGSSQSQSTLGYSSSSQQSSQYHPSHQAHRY
# T14 sequence (Q5S007 whole entry): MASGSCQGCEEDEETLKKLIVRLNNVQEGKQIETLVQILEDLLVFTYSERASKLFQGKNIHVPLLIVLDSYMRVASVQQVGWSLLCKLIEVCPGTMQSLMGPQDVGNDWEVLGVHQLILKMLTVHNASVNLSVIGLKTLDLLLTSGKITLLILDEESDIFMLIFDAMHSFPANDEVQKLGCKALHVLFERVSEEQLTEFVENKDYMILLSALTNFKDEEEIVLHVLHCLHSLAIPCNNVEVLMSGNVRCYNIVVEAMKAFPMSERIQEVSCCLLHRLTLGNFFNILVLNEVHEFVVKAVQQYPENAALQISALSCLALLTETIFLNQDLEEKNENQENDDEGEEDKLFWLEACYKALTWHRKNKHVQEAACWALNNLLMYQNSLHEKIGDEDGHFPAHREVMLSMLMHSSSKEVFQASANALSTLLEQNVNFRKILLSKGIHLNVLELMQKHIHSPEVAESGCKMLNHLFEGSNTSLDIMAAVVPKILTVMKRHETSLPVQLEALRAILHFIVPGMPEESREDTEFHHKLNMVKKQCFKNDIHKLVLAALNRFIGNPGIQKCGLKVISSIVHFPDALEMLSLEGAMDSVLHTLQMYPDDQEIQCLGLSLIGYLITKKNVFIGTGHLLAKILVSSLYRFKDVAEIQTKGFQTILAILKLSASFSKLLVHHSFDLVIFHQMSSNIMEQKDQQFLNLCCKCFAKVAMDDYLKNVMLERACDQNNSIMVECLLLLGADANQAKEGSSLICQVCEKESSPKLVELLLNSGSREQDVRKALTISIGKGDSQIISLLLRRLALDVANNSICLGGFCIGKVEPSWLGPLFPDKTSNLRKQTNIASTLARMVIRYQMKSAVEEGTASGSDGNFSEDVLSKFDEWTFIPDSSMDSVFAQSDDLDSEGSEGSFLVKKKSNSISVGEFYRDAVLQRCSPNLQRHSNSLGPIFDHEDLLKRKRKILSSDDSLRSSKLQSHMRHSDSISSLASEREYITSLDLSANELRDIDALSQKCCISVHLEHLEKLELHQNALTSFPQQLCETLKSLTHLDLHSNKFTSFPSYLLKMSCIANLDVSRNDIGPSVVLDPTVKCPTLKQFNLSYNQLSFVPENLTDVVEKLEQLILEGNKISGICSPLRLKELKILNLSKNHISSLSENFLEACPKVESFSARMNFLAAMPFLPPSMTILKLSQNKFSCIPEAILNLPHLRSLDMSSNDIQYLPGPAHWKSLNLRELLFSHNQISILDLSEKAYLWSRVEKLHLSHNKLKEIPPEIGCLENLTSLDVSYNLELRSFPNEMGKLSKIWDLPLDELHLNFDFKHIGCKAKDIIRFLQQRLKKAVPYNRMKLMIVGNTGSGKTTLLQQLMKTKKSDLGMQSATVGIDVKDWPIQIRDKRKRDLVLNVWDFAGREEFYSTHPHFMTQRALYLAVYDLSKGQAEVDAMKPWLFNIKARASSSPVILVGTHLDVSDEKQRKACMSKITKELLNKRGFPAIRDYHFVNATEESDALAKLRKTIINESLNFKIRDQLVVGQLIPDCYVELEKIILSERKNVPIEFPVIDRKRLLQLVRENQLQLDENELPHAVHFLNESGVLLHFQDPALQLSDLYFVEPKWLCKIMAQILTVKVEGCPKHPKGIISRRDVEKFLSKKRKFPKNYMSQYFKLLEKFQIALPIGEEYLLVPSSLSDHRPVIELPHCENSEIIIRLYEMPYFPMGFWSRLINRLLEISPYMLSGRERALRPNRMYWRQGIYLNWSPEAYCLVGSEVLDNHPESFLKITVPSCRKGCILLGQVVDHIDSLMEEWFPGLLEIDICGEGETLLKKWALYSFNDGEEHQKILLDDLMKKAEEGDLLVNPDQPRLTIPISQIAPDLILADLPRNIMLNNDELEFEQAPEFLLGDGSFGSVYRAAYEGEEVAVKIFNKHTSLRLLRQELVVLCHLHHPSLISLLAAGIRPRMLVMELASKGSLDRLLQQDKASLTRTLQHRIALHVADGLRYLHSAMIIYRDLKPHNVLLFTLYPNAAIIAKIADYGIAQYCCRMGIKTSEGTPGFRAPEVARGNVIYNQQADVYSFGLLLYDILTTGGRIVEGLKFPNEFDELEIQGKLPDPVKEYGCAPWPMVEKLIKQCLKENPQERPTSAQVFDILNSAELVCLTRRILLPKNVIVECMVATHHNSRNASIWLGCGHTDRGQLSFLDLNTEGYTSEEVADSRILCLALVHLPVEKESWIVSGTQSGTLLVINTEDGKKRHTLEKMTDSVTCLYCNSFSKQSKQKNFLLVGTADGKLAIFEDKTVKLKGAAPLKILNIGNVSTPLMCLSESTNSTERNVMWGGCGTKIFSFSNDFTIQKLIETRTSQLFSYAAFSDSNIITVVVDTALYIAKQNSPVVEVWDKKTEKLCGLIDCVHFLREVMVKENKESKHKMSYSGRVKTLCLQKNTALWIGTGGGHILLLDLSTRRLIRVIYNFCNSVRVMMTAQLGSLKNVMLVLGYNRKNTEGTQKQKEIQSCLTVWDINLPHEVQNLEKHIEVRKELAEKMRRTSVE
smiles,measurement,setting,value
"CN1CCN(Cc2ccc(-c3cnc4[nH]cc(-c5ccc6[nH]ccc6c5)c4c3)cc2)CC1 [Compound 1, 3-(1H-Indol-5-yl)-5-(4-((4-methylpiperazin-1-yl)methyl)phenyl)-1H-pyrrolo[2,3-b]pyridine, reference compound]",remaining activity at 0.1 µM,[1],95.4%
same,remaining activity at 0.1 µM,[2],87.8%
same,remaining activity at 0.1 µM,[3],110%
same,remaining activity at 0.1 µM,[4],100%
same,remaining activity at 0.1 µM,[5],76.7%
same,remaining activity at 0.1 µM,[6],107%
same,remaining activity at 0.1 µM,[7],83%
same,remaining activity at 0.1 µM,[8],90.8%
same,remaining activity at 0.1 µM,[9],102%
same,remaining activity at 0.1 µM,[10],24.4%
same,remaining activity at 0.1 µM,[11],107%
same,remaining activity at 0.1 µM,[12],94%
same,remaining activity at 0.1 µM,[13],105%
same,remaining activity at 0.1 µM,[14],58.8%
same,remaining activity at 0.1 µM,[15],105%
same,remaining activity at 0.1 µM,[16],74.3%
same,remaining activity at 0.1 µM,[17],112%
same,remaining activity at 0.1 µM,[18],94.9%
same,remaining activity at 0.1 µM,[19],121%
same,remaining activity at 0.1 µM,[20],72.6%
same,remaining activity at 0.1 µM,[21],23.2%
same,remaining activity at 0.1 µM,[22],104%
same,remaining activity at 0.1 µM,[23],110%
same,remaining activity at 0.1 µM,[24],31.4%
"OCCN1CCN(Cc2ccc(-c3cnc4[nH]cc(-c5cccc(Cl)c5)c4c3)cc2)CC1 [Compound 12k, 2-(4-(4-(3-(3-Chlorophenyl)-1H-pyrrolo[2,3-b]pyridin-5-yl)benzyl)piperazin-1-yl)ethan-1-ol]",remaining activity at 0.1 µM,[1],95.4%
same,remaining activity at 0.1 µM,[2],88.2%
same,remaining activity at 0.1 µM,[3],95.8%
same,remaining activity at 0.1 µM,[4],89.8%
same,remaining activity at 0.1 µM,[5],80.9%
same,remaining activity at 0.1 µM,[6],101%
same,remaining activity at 0.1 µM,[7],98.3%
same,remaining activity at 0.1 µM,[8],82.8%
same,remaining activity at 0.1 µM,[9],113%
same,remaining activity at 0.1 µM,[10],3.95%
same,remaining activity at 0.1 µM,[11],92%
same,remaining activity at 0.1 µM,[12],95%
same,remaining activity at 0.1 µM,[13],103%
same,remaining activity at 0.1 µM,[14],17%
same,remaining activity at 0.1 µM,[15],96.1%
same,remaining activity at 0.1 µM,[16],88.2%
same,remaining activity at 0.1 µM,[17],92.7%
same,remaining activity at 0.1 µM,[18],64.8%
same,remaining activity at 0.1 µM,[19],102%
same,remaining activity at 0.1 µM,[20],88.6%
same,remaining activity at 0.1 µM,[21],9.36%
same,remaining activity at 0.1 µM,[22],103%
same,remaining activity at 0.1 µM,[23],97.3%
same,fold change in KHS activity following 12k exposure relative to 1,[24]; 0.025 μM,17.36 fold
same,remaining activity at 0.1 µM,[24],1.81%
